# Data: patent US20230398153A1, “A METHOD FOR EFFICIENT MICROGLIA REPLACEMENT” (The Board of Trustees of the Leland Stanford Junior …, priority 2020, published 2023)
# Key:
# [1] = tested on: myeloid cells of the spinal cord; experiment: Microglia replacement in the spinal cord after BMT+PLX protocol; type: in vivo, mouse; conditions: PLX5622 treated group
# Text: FIG. 21. Efficient microglia replacement in the spinal cord following our BMT+PLX protocol.
# Many CNS diseases affect primarily the spinal cord. To evaluate whether our microglia replacement protocol is truly CNS-wide we characterized the spinal cords following a replacement as described above. Indeed, when using GFP-expressing donor cells we were able to identify a high and robust chimerism of GFP-positive, transplanted cell among the myeloid cells of the spinal cord (FIG. 21),
# [2] = tested on: brain myeloid cells (CD45+CD11b+); experiment: HSCT followed by PLX5622 treatment: donor (GFP+) myeloid chimerism in the brain by flow cytometry; type: in vivo, mouse
# Text: Microglia depletion after HSCT results in near complete replacement of microglia with bone marrow-derived cells throughout the entire brain. We next tested whether CSF1R inhibition after HSCT enhanced microglia replacement. We therefore performed conventional HSCT with GFP-labeled fresh bone marrow cells. After 28 days, we treated the experimental group with PLX5622 for 10 days and the control group received no drug (FIG. 2A). After another 10 days (7 weeks post transplant) we analyzed the brains and consistently found over 90% of all brain myeloid cells to be GFP^+ by flow cytometry (FIG. 2B, C). […] The transplanted CDMCs had homogeneously populated the entire brain (FIG. 2E). Importantly, this high chimerism was stable and CDMCs remained incorporated for at least 6 months after transplantation (FIG. 2C, 9E).
# PLX5622 was provided by Plexxikon Inc. and incorporated to AIN-76A standard chow by Research Diets Inc. at 1200 mg/kg.
# Unless otherwise noted, we used female mice at age of 8-12 weeks for both recipients and donors. WT mice were pre-treated with PLX5622 diet between day-21 and day −1 (21 days) and/or busulfan between day-6 and −2 day (5 days). For busulfan pre-treatment, mice received five intraperitoneal (IP) injections of busulfan (sigma, B1 170000) at 25 mg/kg body weight per day. On day 0, bone marrow cells (BMCs) were isolated from tibias and femurs of UBC-GFP mice. Isolated BMCs were resuspended in 1×red blood cell lysis buffer (e-bioscience, 00-4300-54) and incubated for 20 min at room temperature. BMCs were passed through 70 μm cell strainer, washed by applying 10 ml of ice cold PBS and then resuspended in fresh PBS. BMCs (5×10^6) in 200 ul PBS were injected into the retro-orbital sinus of the pre-conditioned recipients. On day 28, the recipient mice were treated with PLX5622 or control diet for 10 days. For tamoxifen injection, tamoxifen (sigma T5648) in corn oil (sigma, C8267) was provided by IP injection to the recipient mice at 200 mg/kg at the indicated time points after bone marrow transplantation.
# Microglia cells were isolated from adult mouse brains as described (Shibuya et al., 2014). Anesthetized mice (100 mg/kg of ketamin and 10 mg/kg of xylazine, i.p.) were perfused through the left ventricle with ice-cold PBS without Ca^2+ and Mg^2+. Brains were removed and cut into two pieces along the midline. One hemisphere was immediately transferred to 4% paraformaldehyde for fixation. The other hemi-sphere was minced with a surgical knife, and then transferred to ice-cold HBSS without Ca^2+ and Mg^2+. Minced hemi-brains were centrifuged at 300×g for 2 min at room temperature and then enzymatically digested at 37° C. for 35 min by using Neural Tissue Dissociation Kit (Miltenyi Biotec, 130-092-628) according to the manufacturer's protocol. The cell suspension was passed through a 70 µm cell strainer and washed by applying 10 ml of HBSS with Ca^2+ and Mg^2+ to the strainer. The cell suspension was centrifuged at 300×g for 10 min at room temperature, re-suspended in 30% Percoll (GE Healthcare Lifesciences, 17089102), and then centrifuged at 700×g for 10 min at 4° C. The supernatant containing the myelin was removed and the pellet was washed with 10 ml of HBSS with Ca^2+ and Mg^2+. The resulting pellet was resuspended in FACS buffer and subjected to antibody staining for flow cytometry. Microglia/CDMCs were identified using anti-CD45 and anti-CD11b antibodies.
# The following FACS antibodies were used in this study. CD11b (clone M1/70, BioLegend), CD45 (Clone 30-F11, BD biosciences), F4/80 (clone BM8, biolegend), CCR2 (clone SA203G11, biolegend), gp49A/B (clone H1.1), CD115 (CSF1R) (clone AFS98, biolegend), CD117 (c-kit) (clone 2B8, BD biosciences), sca-1 (clone D7, biolegend), cd127 (IL7Ra)(clone SB/199, biolegend), CD16/CD32 (FcR Ill/II) (clone 93, biolegend), CX3CR1 (clone K0124E1, biolegend), cd135 (Flk-2,)(clone A2F10) CD34 (clone561, biolegend), and Ly6C (clone RB6-8C5). […]
# [3] = tested on: peripheral blood cell populations; experiment: Effect of PLX5622 after HSCT on peripheral blood cell populations; type: in vivo; conditions: PLX5622 10 days after HSCT, D38
# Experimental: FIG. 9. […] (A) Flow cytometry gating for analysis of donor chimerism in PB myeloid cells. (B) Myeloid chimerism in PB was analyzed by flow cytometry at the indicated time point (Horizontal bars represent median values. n=5-6/time point, ns: not significant, Student's t-test). (C) The effect of PLX5622 on PB myeloid cells was analyzed by flow cytometry. Flow cytometry gating for analysis of the indicated cell populations on D38. (D) Quantification of number of the indicated cell populations by flow cytometry (Mean±SEM, n=6/group, ns: not significant, Student's t-test). (E) Representative images of GFP+ and Iba-1+ cells, and DAPI in the cortex of recipient mice at the indicated time points. Scale bars:[…].
# The following FACS antibodies were used in this study. […]
# Approximately 50 ul of peripheral blood per mouse was collected from the facial vein into a 1.5 ml tubes containing 20ul of 0.5M EDTA. […] The resulting cells were analyzed by flow cytometry.
smiles,measurement,setting,value
COc1ncc(F)cc1CNc1ccc(Cc2c[nH]c3ncc(C)cc23)c(F)n1 [PLX5622],myeloid cells GFP+ in total spinal cord by flow cytometry,[1],90%
same,engraftment of CDMCs into the brain,"[2]; PLX5622 between days 14 and 24 after HSCT, flow cytometry on D34",comparably robust and efficient engraftment
same,fraction of GFP+ cells among brain myeloid cells,"[2]; PLX5622 pre-treatment before HSCT (busulfan+PLX5622 group), 14 days post IV injection",only a marginal increase
same,expression of microglia-specific marker TMEM119 in CDMCs,"[2]; PLX5622 treatment following HSCT, cortex, d83",induced expression of the microglia-specific marker TMEM119 in CDMCs
same,duration CDMCs remained incorporated (stable high chimerism),"[2]; after transplantation, PLX5622 10 days from D28",at least 6 months
same,brain myeloid cells GFP+ by flow cytometry,"[2]; busulfan HSCT, PLX5622 10 days from D28, analysed after another 10 days (7 weeks post transplant)",over 90%
same,CDMCs (GFP+) and microglia (GFP-) numbers during PLX5622 treatment,[2]; flow cytometry during treatment after HSCT,both cell populations were diminished to similar degrees
same,composition of peripheral blood cell populations,[3],largely unaffected
